According to patent publication US9718790B2, “Triazine derivative and pharmaceutical composition having an analgesic activity comprising the same” (SHIONOGI & CO., LTD., priority 2010, dated 2017):

These compounds were tested against human P2X3 receptor (Homo sapiens (Human), UniProt P56373) (assay: Evaluation of human P2X3 receptor inhibitory activity (Fluo-3 calcium fluorescence, FDSS 3000, ATP stimulation)). Details: C6BU-1 cells stably expressing human P2X3 receptor.
Format: cell-based
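Also: stimulus was 50 nM ATP with fluorescence followed for 3 min, and the response per well was peak post-ATP fluorescence divided by the reading at measurement start.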

human P2X3 receptor, sequence (P56373 whole entry): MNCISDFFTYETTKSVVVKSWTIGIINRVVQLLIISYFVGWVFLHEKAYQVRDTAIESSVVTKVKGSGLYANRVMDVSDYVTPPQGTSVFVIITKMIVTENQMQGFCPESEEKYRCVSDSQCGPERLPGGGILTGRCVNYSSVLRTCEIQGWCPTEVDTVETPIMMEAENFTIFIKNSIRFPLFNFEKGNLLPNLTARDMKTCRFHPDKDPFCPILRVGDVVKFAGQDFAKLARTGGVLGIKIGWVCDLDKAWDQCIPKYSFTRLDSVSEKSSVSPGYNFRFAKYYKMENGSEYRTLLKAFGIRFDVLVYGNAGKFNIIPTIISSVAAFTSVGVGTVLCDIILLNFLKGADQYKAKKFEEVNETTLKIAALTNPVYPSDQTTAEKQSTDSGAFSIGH

Row | SMILES | IC50 [nM]
1 | CC(C)Oc1ccc(/N=c2\[nH]c(=O)n(CC(=O)N3CCOCC3)c(=O)n2Cc2ccc(Cl)cc2)cc1Cl [Compound I-0739] | 29
2 | Cc1cc(Oc2ccc(/N=c3\[nH]c(=O)n(CC(=O)NCCO)c(=O)n3Cc3ccc(Cl)cc3)cc2)ccn1 [Compound I-1928] | 5
3 | CCOC(=O)c1sc(Oc2ccc(/N=c3\[nH]c(=O)n(CC)c(=O)n3Cc3ccc(Cl)cc3)cc2)nc1C [Compound I-2147] | 14
4 | CC(C)Oc1ccc(/N=c2\[nH]c(=O)n([C@H](C)[C@H](C)C(=O)O)c(=O)n2Cc2ccc(Cl)cc2)cc1Cl [Compound I-1342] | 10
5 | CNC(=O)C1(Cn2c(=O)[nH]/c(=N\c3ccc(OC(C)C)c(C)c3)n(Cc3ccc(Cl)cc3)c2=O)CC1 [Compound I-0703] | 15
6 | Cn1c(=O)[nH]/c(=N\c2ccc(Oc3ccnc(CO)c3)cc2)n(Cc2ccc(Cl)cc2)c1=O [Compound I-2018] | 22
7 | CNC(=O)Cn1c(=O)[nH]/c(=N\c2ccc(O[C@H](C)C(F)(F)F)cc2)n(Cc2ccc(Cl)cc2)c1=O [Compound I-1960] | 54
8 | COC(=O)C(C)(C)n1c(=O)[nH]/c(=N\c2ccc(O)c(Cl)c2)n(Cc2ccc(Cl)cc2)c1=O [Compound I-0676] | 30
9 | Cc1ccc(Cn2c(=O)n(C[C@H](C)C(=O)O)c(=O)[nH]/c2=N\c2ccc(Oc3cc(C)nc(C)c3)cc2)cc1 [Compound I-1260] | 31
10 | CCn1c(=O)[nH]/c(=N\c2ccc(Oc3ccccc3C(=O)O)cc2)n(Cc2ccc(Cl)cc2)c1=O [Compound I-1992] | 240
11 | COC(=O)[C@H](C)[C@H](C)n1c(=O)[nH]/c(=N\c2ccc(CC(C)C)c(Cl)c2)n(Cc2ccc(C)cc2)c1=O [Compound I-1436] | 54
12 | NC(=O)CCn1c(=O)[nH]/c(=N\c2ccc(OCC3CC3)cc2)n(Cc2ccc(Cl)cc2)c1=O [Compound I-1914] | 46
13 | CCCOc1ccc(/N=c2\[nH]c(=O)n(C[C@H](C)C(=O)OC)c(=O)n2Cc2ccc(Cl)cc2)cc1 [Compound I-0619] | 14
14 | CC(C)COc1ccc(/N=c2\[nH]c(=O)n([C@@H](C)[C@@H](C)C(=O)O)c(=O)n2Cc2ccc(Cl)cc2)cc1 [Compound I-1386] | 28

Same assay, conditions: C6BU-1 cells stably expressing human P2X3 receptor, Fluo-3 fluorescence, FDSS 3000

Row | SMILES | IC50 [nM]
15 | CCCc1ccc(Cn2c(=O)n(C[C@H](C)C(=O)OC)c(=O)[nH]/c2=N\c2ccc(OC(C)C)cc2)cc1 [Compound I-1144] | 764
16 | Cc1cc(/N=c2\[nH]c(=O)n(CC3(CC(=O)O)CC3)c(=O)n2Cc2ccc(Cl)cc2)ccc1OC(C)C [Compound I-0982] | 17
17 | C[C@@H](Cn1c(=O)[nH]/c(=N\c2ccc(Oc3ccccc3)cc2)n(Cc2ccc(Cl)cc2)c1=O)C(=O)O [Compound I-0991, (S)-1-(4-chlorobenzyl)-3-(2-hydroxycarbonylpropyl)-6-(4-phenoxyphenylimino)-1,3,5-triazinane-2,4-dion] | 22
18 | C=Cc1cc(/N=c2\[nH]c(=O)n(C[C@H](C)C(=O)OC)c(=O)n2Cc2ccc(C)cc2)ccc1OC(C)C [Compound I-0907, (S)-1-(4-methylbenzyl)-6-(3-vinyl-4-isopropoxyphenylimino)-3-(2-methoxycarbonylpropyl)-1,3,5-triazinane-2,4-dion] | 7
19 | COc1noc2cc(/N=c3\[nH]c(=O)n([C@@H](C)[C@@H](C)C(=O)O)c(=O)n3Cc3ccc(Cl)cc3)ccc12 [Compound I-1746] | 129
20 | C[C@@H](Cn1c(=O)[nH]/c(=N\c2ccc(O[C@H](C)C(F)(F)F)cc2)n(Cc2ccc(Cl)cc2)c1=O)C(=O)O [Compound I-0932] | 21
21 | C=C(C)c1ccc(Cn2c(=O)n(C[C@H](C)C(=O)O)c(=O)[nH]/c2=N\c2ccc(OC(C)C)c(C)c2)cc1 [Compound I-1001] | 292
22 | Cc1cc(Oc2ccc(/N=c3\[nH]c(=O)n(CC(=O)O)c(=O)n3Cc3ccc(Cl)cc3)cc2)ccn1 [Compound I-1800] | 510
23 | COC(=O)[C@H](C)Cn1c(=O)[nH]/c(=N\c2ccc(OC(C)C)cc2)n(Cc2ccc(C)cc2)c1=O [Compound I-1104] | 11
24 | Cc1ccc(Cn2c(=O)n(C[C@H](C)C(=O)O)c(=O)[nH]/c2=N\c2ccc(OC(F)(F)F)c(Cl)c2)cc1 [Compound I-1033] | 67
25 | C/C=C/c1ccc(Cn2c(=O)n(C[C@H](C)C(=O)OC)c(=O)[nH]/c2=N\c2ccc(OC(C)C)cc2)cc1 [Compound I-1141] | 911
26 | CCCc1cc2cc(/N=c3\[nH]c(=O)n([C@@H](C)[C@@H](C)C(=O)OC)c(=O)n3Cc3ccc(Cl)cc3)ccc2o1 [Compound I-1817] | 52
27 | C[C@@H](C(=O)O)[C@H](C)n1c(=O)[nH]/c(=N\c2ccc3nc(C(F)(F)F)[nH]c3c2)n(Cc2ccc(Cl)cc2)c1=O [Compound I-1794] | 380
28 | Cc1ccc(Cn2c(=O)n(C[C@H](C)C(=O)O)c(=O)[nH]/c2=N\c2ccc(OC(C)C)c(O)c2)cc1 [Compound I-1134] | 35
29 | Cc1ccc(Cn2c(=O)n(C[C@H](C)C(=O)O)c(=O)[nH]/c2=N\c2cccc(C3CCCCC3)c2)cc1 [Compound I-1109] | 430
30 | COC(=O)[C@@H](C)Cn1c(=O)[nH]/c(=N\c2ccc(O[C@@H](C)C(F)(F)F)cc2)n(Cc2ccc(Cl)cc2)c1=O [Compound I-0943] | 61
31 | COC(=O)[C@@H](C)Cn1c(=O)[nH]/c(=N\c2ccc(OC3CCC3)nc2)n(Cc2ccc(C)cc2)c1=O [Compound I-1187] | 58

Same assay, conditions: human P2X3 receptor, Test Example 1

Row | SMILES | IC50 [nM]
32 | Cc1cc(/N=c2\[nH]c(=O)n([C@H](C)[C@H](C)C(=O)O)c(=O)n2Cc2ccc(Cl)cc2)ccc1OC(C)C [Compound I-0825] | 25
33 | CCn1c(=O)[nH]/c(=N\c2ccc(Oc3ccc(C#N)nn3)cc2)n(Cc2ccc(Cl)cc2)c1=O [Compound I-2601] | 12
34 | CCn1c(=O)[nH]/c(=N\c2ccc(Oc3cccc(/C=C/C(=O)OC)c3)cc2)n(Cc2ccc(C)cc2)c1=O [Compound I-2327] | 8
35 | CCn1c(=O)[nH]/c(=N\c2ccc(Oc3cnc(C(=O)O)cn3)cc2)n(Cc2ccc(Cl)cc2)c1=O [Compound I-2296] | 5
36 | CCn1c(=O)[nH]/c(=N\c2ccc3nc(Cl)sc3c2)n(Cc2ccc(Cl)cc2)c1=O [Compound I-2321] | 11
37 | CCCOc1ccc(/N=c2\[nH]c(=O)n(C[C@H](CC)C(=O)O)c(=O)n2Cc2ccc(C)cc2)cc1 [Compound I-0885] | 87
38 | CCn1c(=O)[nH]/c(=N\c2ccc(Oc3cccc(C(=O)O)n3)cc2)n(Cc2ccc(F)cc2)c1=O [Compound I-2496] | 30
39 | CCn1c(=O)[nH]/c(=N\c2ccc(Oc3cnc(C(=O)O)nc3)cc2)n(Cc2ccc(Cl)cc2)c1=O [Compound I-2285] | 15
40 | CNC(=O)[C@@H](CCO)n1c(=O)[nH]/c(=N\c2ccc(OC(C)C)c(C)c2)n(Cc2ccc(Cl)cc2)c1=O [Compound I-0870] | 530
41 | CC[C@@H](C)n1c(=O)[nH]/c(=N\c2ccc(Oc3ccnc(C(=O)O)c3)cc2)n(Cc2ccc(Cl)cc2)c1=O [Compound I-2482] | 11
42 | CCn1c(=O)[nH]/c(=N\c2ccc(Oc3ccc(C(=O)O)c(F)c3)cc2)n(Cc2ccc(Cl)cc2)c1=O [Compound I-2226] | 12
43 | CCn1c(=O)[nH]/c(=N\c2ccc(Oc3cncc(C(=O)O)c3)cc2)n(C[C@H]2CC[C@H](C)CC2)c1=O [Compound I-2352] | 6
44 | O=C(Cn1c(=O)[nH]/c(=N\c2ccc(Oc3ccon3)cc2)n(Cc2ccc(Cl)cc2)c1=O)NCC(F)(F)F [Compound I-2681] | 4
